Measured values reported in US20170007553A1, “METHODS FOR THE PREVENTION AND TREATMENT OF CEREBRAL ISCHEMIA” (Edison Pharmaceuticals, Inc., priority 2009, published 2017).

How the values were obtained:
[1] = fraction of the activity of natural alpha-tocopherol; cited from earlier work
[2] = tested on: neuronal cells; conditions: nM/L concentrations; by suppressing early activation of c-Src kinase and 12-lipoxygenase; cited from earlier work
[3] = tested on: cerebral ischemia induced in rats (MCAO); test: Animal cerebral infarct assay, rat middle cerebral artery occlusion (MCAO) with reperfusion; assay type: in vivo; conditions: for reduction of total infarct size: gavage, 500 mg/kg
[4] = administered at the time of reperfusion, rats

Cc1cc(O)cc2c1O[C@](C)(CCC[C@H](C)CCC[C@H](C)CCCC(C)C)CC2 [Delta-tocopherol]
activity relative to natural alpha-tocopherol [1]: one hundredth

Cc1c(C)c2c(c(C)c1O)CC[C@@](C)(CCC[C@H](C)CCC[C@H](C)CCCC(C)C)O2 [alpha-tocopherol]
blocking of glutamate-induced death [2]: not

CC(C)=CCC/C(C)=C/CC/C(C)=C/CC[C@@](C)(O)CCC1=C(C)C(=O)C(C)=C(C)C1=O [alpha-tocotrienol quinone]
reduction of cerebral edema relative to controls [3, 4]: 40% | reduction of total infarct volume relative to controls [3, 4]: 40% | reduction of total ischemic damage relative to controls [3, 4]: 40% | reduction of total infarct size ([3]; administered at reperfusion): 40% | reduction of total infarct size ([3]; administered at the time of MCAO): 40%

alpha-tocotrienol
blocking of glutamate-induced death [2]: blocked glutamate-induced death
